Experiments:
[1] = system: mice bearing PSMA-expressing LNCAP cancer xenografts; assay: Biodistribution of 68Ga-labeled compounds; type: in vivo
In short: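 NOD-SCID IL2RγKO male mice carried subcutaneous LNCaP xenografts grown to 5-8 mm over 5-6 weeks. Organs and blood were collected at 1 or 3 h after injection of the radiotracer and gamma-counted. Uptake was normalized to injected dose via a standard curve and expressed as %ID/g.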

[2] = system: mice bearing LNCaP tumor xenografts; assay: PET/CT imaging of 68Ga-labeled compounds; type: in vivo
In short: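 Male NOD SCID IL2Rγ KO mice bore subcutaneous LNCaP xenografts (1×10^7 cells, tumours 5-8 mm) and received 6-8 MBq tracer via tail vein under 2% isoflurane. At 50 min p.i., a 10-min CT and a 10-min static PET were acquired. For the 3 h time point, scanning began at 170 min p.i. with a 15-min static PET.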

An Adrenal glands uptake ([1]; 1 h post-injection) of 3.57 ± 1.09 % ID/g, a Blood uptake ([1]; 1 h post-injection) of 5.73 ± 0.93 % ID/g and a Bone uptake ([1]; 1 h post-injection) of 0.34 ± 0.08 % ID/g were found for `O=C([O-])CN1CCN(CC(=O)[O-])CCN(CC(=O)NCCCC[C@H](NC(=O)CNC(=O)CCCc2ccc(F)cc2)C(=O)NC[C@H]2CC[C@H](C(=O)N[C@@H](Cc3ccc4ccccc4c3)C(=O)NCCCC[C@H](NC(=O)N[C@@H](CCC(=O)O)C(=O)O)C(=O)O)CC2)CCN(CC(=O)[O-])CC1.[68Ga+3]` [^68Ga-HTK03085] in this work. For the same compound, the Brain uptake ([1]; 1 h post-injection) was 0.08 ± 0.01 % ID/g, the Fat uptake ([1]; 1 h post-injection) was 1.36 ± 0.28 % ID/g and the Heart uptake ([1]; 1 h post-injection) was 1.46 ± 0.27 % ID/g. For the same compound, the Intestine uptake ([1]; 1 h post-injection) was 0.61 ± 0.10 % ID/g, the Kidneys uptake ([1]; 1 h post-injection) was 85.8 ± 8.36 % ID/g and the Lacrimal uptake ([1]; 1 h post-injection) was 0.11 ± 0.06 % ID/g. For the same compound, the Liver uptake ([1]; 1 h post-injection) was 1.01 ± 0.29 % ID/g, the Lungs uptake ([1]; 1 h post-injection) was 3.67 ± 0.72 % ID/g and the Muscle uptake ([1]; 1 h post-injection) was 0.58 ± 0.08 % ID/g. It also gave a Pancreas uptake ([1]; 1 h post-injection) of 0.86 ± 0.09 % ID/g, a Salivary uptake ([1]; 1 h post-injection) of 2.61 ± 0.59 % ID/g and a Seminal uptake ([1]; 1 h post-injection) of 1.42 ± 2.17 % ID/g. It also gave a Spleen uptake ([1]; 1 h post-injection) of 3.90 ± 1.57 % ID/g, a Stomach uptake ([1]; 1 h post-injection) of 0.24 ± 0.05 % ID/g and a Tail uptake ([1]; 1 h post-injection) of 1.79 ± 0.36 % ID/g. For the same compound, the Testes uptake ([1]; 1 h post-injection) was 1.03 ± 0.12 % ID/g, the Thyroid uptake ([1]; 1 h post-injection) was 1.70 ± 0.25 % ID/g and the Tumor uptake ([1]; 1 h post-injection) was 18.8 ± 3.35 % ID/g. For the same compound, the “Tumor:Blood ratio” value ([1]; 1 h post-injection) was 3.33 ± 0.75, the “Tumor:Muscle ratio” value ([1]; 1 h post-injection) was 33.2 ± 7.91 and the “Tumor:kidney ratio” value ([1]; 1 h post-injection) was 0.22 ± 0.03. For the same compound, the Urine uptake ([1]; 1 h post-injection) was 181 ± 97.2 % ID/g, the Adrenal glands uptake ([1]; 3 h post-injection) was 1.37 ± 0.48 % ID/g and the Blood uptake ([1]; 3 h post-injection) was 2.10 ± 0.48 % ID/g. It also gave a Bone uptake ([1]; 3 h post-injection) of 0.13 ± 0.04 % ID/g, a Brain uptake ([1]; 3 h post-injection) of 0.04 ± 0.01 % ID/g and a Fat uptake ([1]; 3 h post-injection) of 0.70 ± 0.13 % ID/g. For the same compound, the Heart uptake ([1]; 3 h post-injection) was 0.52 ± 0.09 % ID/g, the Intestine uptake ([1]; 3 h post-injection) was 0.39 ± 0.08 % ID/g and the Kidneys uptake ([1]; 3 h post-injection) was 63.4 ± 16.6 % ID/g. It also gave a Lacrimal uptake ([1]; 3 h post-injection) of 0.04 ± 0.07 % ID/g, a Liver uptake ([1]; 3 h post-injection) of 0.61 ± 0.08 % ID/g and a Lungs uptake ([1]; 3 h post-injection) of 1.50 ± 0.26 % ID/g. For the same compound, the Muscle uptake ([1]; 3 h post-injection) was 0.31 ± 0.08 % ID/g, the Pancreas uptake ([1]; 3 h post-injection) was 0.35 ± 0.09 % ID/g and the Salivary uptake ([1]; 3 h post-injection) was 1.03 ± 0.33 % ID/g. It also gave a Seminal uptake ([1]; 3 h post-injection) of 0.21 ± 0.08 % ID/g, a Spleen uptake ([1]; 3 h post-injection) of 1.05 ± 0.09 % ID/g and a Stomach uptake ([1]; 3 h post-injection) of 0.16 ± 0.09 % ID/g. The Tail uptake ([1]; 3 h post-injection) was 0.60 ± 0.15 % ID/g, the Testes uptake ([1]; 3 h post-injection) was 0.60 ± 0.09 % ID/g and the Thyroid uptake ([1]; 3 h post-injection) was 0.64 ± 0.10 % ID/g. The Tumor uptake ([1]; 3 h post-injection) was 28.9 ± 4.27 % ID/g, the “Tumor:Blood ratio” value ([1]; 3 h post-injection) was 14.2 ± 2.77 and the “Tumor:Muscle ratio” value ([1]; 3 h post-injection) was 95.8 ± 20.9. For the same compound, the “Tumor:kidney ratio” value ([1]; 3 h post-injection) was 0.48 ± 0.11, the Urine uptake ([1]; 3 h post-injection) was 141 ± 54.3 % ID/g and the “change of tumor uptake from 1 h to 3 h post-injection” value ([2]; PET/CT images) was “increases over time”. For the same compound, the excretion pathway ([2]; PET/CT images) was “excreted mainly by the renal pathway” and the “blood retention (qualitative)” value ([2]; PET/CT images at 1 h and 3 h post-injection, comparison within the figure) was “significantly higher blood retention”.

From patent US20200339625A1, “NOVEL RADIOMETAL-BINDING COMPOUNDS FOR DIAGNOSIS OR TREATMENT OF PROSTATE SPECIFIC MEMBRANE ANTIGEN-EXPRESSING CANCER” (PROVINCIAL HEALTH SERVICES AUTHORITY, priority 2017, published 2020)
